Laboratory results from patent US8592161B2, “Mutational profiles in HIV-1 protease correlated with phenotypic drug resistance” (Janssen R&D Ireland, priority 2002, dated 2013).
Like-named read-outs stand apart in the source and are kept apart here.

Key:
Assay type in all cases: cell-based
HIV-1/LAI = assay: In vitro antiviral activity in acutely infected MT4 cells, wild type; settings: read-out: median EC50
Description: (§1) Determination of the antiviral activity of a compound was done as described in Pauwels R. et al. (J Virol Methods 1988; 20(4):309-21). Various concentrations of the test compounds were brought into each well of a flat-bottom microtiter plate. Subsequently, HIV and MT4 cells were added to a final concentration of 200-250 50% cell culture infectious doses (CCID50)/well and 30,000 cells/well, respectively. After 5 days of incubation (37° C., 5% CO2), the cytopathic effect of the replicating virus was determined by the tetrazolium colorimetric MTT method. The dose protecting 50% of the cells from virus cytopathic effect was defined as the EC50, while the dose achieving 90% protection was defined as the EC90.
(§2) MT4-LTR-EGFP cells were infected at a multiplicity of infection (MOI) of 0.01 to 0.001 CCID50/cell in the presence of inhibitor. The starting concentration of the inhibitor was two to tee times the EC50, a suboptimal concentration. The cultures were sub-cultivated and scored microscopically on virus-induced fluorescence and cytopathicity every 3-4 days. The cultures were sub-cultivated in the presence of the same compound concentration until signs of virus replication were observed. The escaping virus was further cultivated in the presence of the same inhibitor concentration in order to enrich the population in resistant variants. If full virus breakthrough was observed the supernatant was collected and stored (new virus strain). Afterwards, the same virus was challenged with a higher compound concentration in order to select variants able to grow in the presence of as high as possible inhibitor concentrations. From the new viruses, a virus stock was grown in the absence of inhibitor.
(§3) In vitro drug selection experiments starting from wild-type HIV-1 under pressure of compound 1, compound 2, and Nelfinavir (NFV) have been performed. Tables 1, 2, 3, 4, and 5 show the genotypic and phenotypic characterization of the selected strains.

[1] = tested on: HIV-1 strain selected with Comp 1 (20 nM, 94 days), protease R41G/R V82V/I; assay: In vitro antiviral activity in acutely infected MT4 cells, selected strain; settings: for EC50: Human immunodeficiency virus 1, Table 4, strain R41G/R V82V/I (Comp 1 20 nM, 94 days), read-out: median EC50
Description: as §1, §2, §3

[2] = tested on: HIV-1 strain selected with Comp 1 (40 nM, 161 days), protease R41G V82I; assay: as above; settings: for EC50: Human immunodeficiency virus 1, Table 4, strain R41G V82I (Comp 1 40 nM, 161 days), read-out: median EC50
Description: as §1, §2, §3

[3] = tested on: HIV-1 strain selected with Comp 1 (40 nM, 175 days), protease R41G V82I; assay: as above; settings: for EC50: Human immunodeficiency virus 1, Table 4, strain R41G V82I (Comp 1 40 nM, 175 days), read-out: median EC50
Description: as §1, §2, §3

[4] = tested on: HIV-1/LAI strain selected with Comp 1 (100 nM, 139 days), protease S37S/N R41R/K K70E; assay: as above; settings: for EC50: Human immunodeficiency virus 1, Table 2, strain S37S/N R41R/K K70E (Comp 1 100 nM, 139 days), read-out: median EC50
Description: as §1, §2, §3

[5] = tested on: HIV-1/LAI strain selected with Comp 1 (100 nM, 195 days), protease S37N R41S K70E; assay: as above; settings: for EC50: Human immunodeficiency virus 1, Table 2, strain S37N R41S K70E (Comp 1 100 nM, 195 days), read-out: median EC50
Description: as §1, §2, §3

[6] = tested on: HIV-1/LAI strain selected with Comp 1 (200 nM, 328 days), protease S37N R41S K70E; assay: as above; settings: for EC50: Human immunodeficiency virus 1, Table 2, strain S37N R41S K70E (Comp 1 200 nM, 328 days), read-out: median EC50
Description: as §1, §2, §3

[7] = tested on: HIV-1/LAI strain selected with Comp 1 (30 nM, 70 days), protease K70E; assay: as above; settings: for EC50: Human immunodeficiency virus 1, Table 2, strain K70E (Comp 1 30 nM, 70 days), read-out: median EC50
Description: as §1, §2, §3

[8] = tested on: HIV-1/LAI strain selected with Compound 1 (100 nM, 188 days), protease R41T K70E; assay: as above; settings: for EC50: Human immunodeficiency virus 1, Table 1, strain R41T K70E (Compound 1 100 nM, 188 days), read-out: median EC50
Description: as §1, §2, §3

[9] = tested on: HIV-1/LAI strain selected with Compound 1 (30 nM, 45 days), protease R41T; assay: as above; settings: for EC50: Human immunodeficiency virus 1, Table 1, strain R41T (Compound 1 30 nM, 45 days), read-out: median EC50
Description: as §1, §2, §3

[10] = tested on: HIV-1/LAI strain selected with Compound 2 (100 nM), protease R41I; Table 3; assay: as above; settings: Human immunodeficiency virus 1, R41I strain selected with Compound 2 100 nM (head lists 116, 200, 264 days; assignment unclear), read-out: median EC50
Description: as §1, §2, §3

[11] = tested on: HIV-1/LAI strain selected with NFV (1000 nM, 35 days), protease D30N M46I; assay: as above; settings: Human immunodeficiency virus 1, Table 5, strain D30N M46I (NFV 1000 nM, 35 days), read-out: median EC50
Description: as §1, §2, §3

[12] = tested on: HIV-1/LAI strain selected with NFV (3000 nM, 69 days), protease L10F D30N M46I V77I I85V/I N88D/N; assay: as above; settings: Human immunodeficiency virus 1, Table 5, strain L10F D30N M46I V77I I85V/I N88D/N (NFV 3000 nM, 69 days), read-out: median EC50
Description: as §1, §2, §3

[13] = tested on: HIV-1/LAI strain selected with NFV (9000 nM, 11l days), protease L10F D30N R41R/K K45I/K M46I V77I I84V/I I85V/I N88D; assay: as above; settings: Human immunodeficiency virus 1, Table 5, strain L10F D30N R41R/K K45I/K M46I V77I I84V/I I85V/I N88D (NFV 9000 nM, 11l days), read-out: median EC50
Description: as §1, §2, §3

[14] = tested on: HIV-1/LAI strain selected with NFV (9000 nM, 140 days), protease L10F D30N R41R/K K45I/K M46I V77I I84V N88D; assay: as above; settings: Human immunodeficiency virus 1, Table 5, strain L10F D30N R41R/K K45I/K M46I V77I I84V N88D (NFV 9000 nM, 140 days), read-out: median EC50
Description: as §1, §2, §3

[15] = tested on: HIV-1/LAI strain selected with Compound 1 (100 nM, 97 days), protease R41T K70E; assay: as above; settings: for EC50: Human immunodeficiency virus 1, Table 1, strain R41T K70E (Compound 1 100 nM, 97 days), read-out: median EC50
Description: as §1
as §2, with “The cultures were sub-cultivated in the presence of the same compound concentration until signs of virus replication were observed.” left out, “Afterwards, the same virus was challenged with a higher compound concentration in order to select variants able to grow in the presence of as high as possible inhibitor concentrations.” left out

[16] = tested on: HIV-1 starting strain of Table 4 (no compound, no mutations); assay: In vitro antiviral activity in acutely infected MT4 cells, starting strain; settings: for EC50: Human immunodeficiency virus 1, starting strain HIV-1, no compound, read-out: median EC50
Description: as §1, §2, §3

[17] = tested on: HIV-1/LAI strain selected with Compound 2 (100 nM), protease R41I; assay: In vitro antiviral activity in acutely infected MT4 cells, selected strain; settings: Human immunodeficiency virus 1, Table 3, R41I strain selected with Compound 2 100 nM (head lists 116, 200, 264 days; assignment unclear), read-out: median EC50
Description: as §1
as §2, with “The cultures were sub-cultivated in the presence of the same compound concentration until signs of virus replication were observed.” left out, “Afterwards, the same virus was challenged with a higher compound concentration in order to select variants able to grow in the presence of as high as possible inhibitor concentrations.” left out

[18] = Human immunodeficiency virus 1, MT4, Table 1, wild-type HIV/LAI
[19] = Human immunodeficiency virus 1, MT4, Table 2, wild-type HIV-1/LAI
[20] = Human immunodeficiency virus 1, MT4, Table 3, wild-type HIV-1/LAI
[21] = Human immunodeficiency virus 1, MT4, Table 4, wild-type HIV-1/LAI
[22] = Human immunodeficiency virus 1, MT4, Table 5, wild-type HIV-1/LAI

Compound: CC(C)c1nc(CN(C)C(=O)N[C@H](C(=O)N[C@@H](Cc2ccccc2)C[C@H](O)[C@H](Cc2ccccc2)NC(=O)OCc2cncs2)C(C)C)cs1 [Ritonavir]
- EC50 (HIV-1/LAI; [18]): 31 nM
- EC50 (HIV-1/LAI; [19]): 33 nM
- EC50 (HIV-1/LAI; [20]): 33 nM
- EC50 (HIV-1/LAI; [21]): 33 nM
- EC50 (HIV-1/LAI; [22]): 33 nM
- EC50 [1]: 4.2 nM
- EC50 [2]: 6.3 nM
- EC50 [3]: 1.7 nM
- EC50 [4]: 22 nM
- EC50 [5]: 14 nM
- EC50 [6]: 31 nM
- EC50 [7]: 47 nM
- EC50 [8]: 46 nM
- EC50 [9]: 32 nM
- EC50 [10]: 22 nM
- EC50 [11]: 19 nM
- EC50 [12]: 27 nM
- EC50 [13]: 86 nM
- EC50 [14]: 170 nM
- EC50 [15]: 21 nM
- EC50 [16]: 22 nM

Compound: CC(C)CN(C[C@@H](O)[C@H](Cc1ccccc1)NC(=O)O[C@H]1CO[C@H]2OCC[C@H]21)S(=O)(=O)c1ccc2nc(NCCN3CCCC3)sc2c1 [Compound 2]
- EC50 (HIV-1/LAI; [20]): 12 nM
- EC50 [10]: 6.9 nM
- EC50 [17]: 61 nM

Compound: CC(C)CN(C[C@@H](O)[C@H](Cc1ccccc1)NC(=O)O[C@H]1CO[C@H]2OCC[C@H]21)S(=O)(=O)c1ccc(N)cc1 [Compound 1, Carbamic acid, [(1S,2R)-3-[[(4-aminophenyl)sulfonyl](2-methylpropyl)amino]-2-hydroxy-1-(phenylmethyl)propyl]-, (3R,3aS,6aR)-hexahydrofuro[2,3-b]furan-3-yl ester]
- EC50 (HIV-1/LAI; [18]): 3.2 nM
- EC50 (HIV-1/LAI; [19]): 2.6 nM
- EC50 (HIV-1/LAI; [21]): 2.6 nM
- EC50 [1]: 1.1 nM
- median FC (fold change in EC50 as compared to wild type) ([1]; Table 4, strain R41G/R V82V/I (Comp 1 20 nM, 94 days)): 0
- EC50 [2]: 2.6 nM
- median FC (fold change in EC50 as compared to wild type) ([2]; Table 4, strain R41G V82I (Comp 1 40 nM, 161 days)): 1
- EC50 [3]: 1.9 nM
- median FC (fold change in EC50 as compared to wild type) ([3]; Table 4, strain R41G V82I (Comp 1 40 nM, 175 days)): 1
- EC50 [4]: 2.5 nM
- median FC (fold change in EC50 as compared to wild type) ([4]; Table 2, strain S37S/N R41R/K K70E (Comp 1 100 nM, 139 days)): 1
- EC50 [5]: 4.7 nM
- median FC (fold change in EC50 as compared to wild type) ([5]; Table 2, strain S37N R41S K70E (Comp 1 100 nM, 195 days)): 2
- EC50 [6]: 0.4 nM
- median FC (fold change in EC50 as compared to wild type) ([6]; Table 2, strain S37N R41S K70E (Comp 1 200 nM, 328 days)): 0.2
- EC50 [7]: 6.5 nM
- median FC (fold change in EC50 as compared to wild type) ([7]; Table 2, strain K70E (Comp 1 30 nM, 70 days)): 3
- EC50 [8]: 44 nM
- median FC (fold change in EC50 as compared to wild type) ([8]; Table 1, strain R41T K70E (Compound 1 100 nM, 188 days)): 10
- EC50 [9]: 7.7 nM
- median FC (fold change in EC50 as compared to wild type) ([9]; Table 1, strain R41T (Compound 1 30 nM, 45 days)): 2
- EC50 [15]: 26 nM
- median FC (fold change in EC50 as compared to wild type) ([15]; Table 1, strain R41T K70E (Compound 1 100 nM, 97 days)): 8
- EC50 [16]: 3.4 nM
- median FC (fold change in EC50 as compared to wild type) ([16]; starting strain HIV-1, no compound): 1

Compound: Cc1cccc(C)c1OCC(=O)N[C@@H](Cc1ccccc1)[C@@H](O)C[C@H](Cc1ccccc1)NC(=O)[C@H](C(C)C)N1CCCNC1=O [Lopinavir]
- EC50 (HIV-1/LAI; [18]): 7.9 nM
- EC50 (HIV-1/LAI; [19]): 4.6 nM
- EC50 (HIV-1/LAI; [20]): 4.6 nM
- EC50 (HIV-1/LAI; [21]): 4.6 nM
- EC50 (HIV-1/LAI; [22]): 4.6 nM
- EC50 [1]: 2 nM
- EC50 [2]: 1.8 nM
- EC50 [3]: 1 nM
- EC50 [4]: 2.8 nM
- EC50 [5]: 3.9 nM
- EC50 [6]: 1.1 nM
- EC50 [7]: 17 nM
- EC50 [8]: 47 nM
- EC50 [9]: 27 nM
- EC50 [10]: < 0.9 nM
- EC50 [11]: 7.7 nM
- EC50 [12]: 24 nM
- EC50 [13]: 39 nM
- EC50 [14]: 56 nM
- EC50 [17]: 18 nM
- EC50 [16]: 6.8 nM
